Experiments:
neutrophils = assay: Neutrophil apoptosis, Annexin V and PI co-staining; format: cell-based, mouse; conditions: 20 ng/ml, 24 h
Method: FIGS. 33A-33C depicts GM-CSF enhances neutrophil transmigration and delay apoptosis in vitro. (FIG. 33A) Percentages of migrated neutrophils with or without GM-CSF as chemoattractant in transmigration assay at 3 h post start. (FIG. 33B) Microscopic images of CFSE-labeled neutrophils in the bottom of the lower chamber in transmigration assay. (FIG. 33C) Sorted neutrophils were cultured in vitro with or without GM-CSF (20 ng/ml) for 24 h. Neutrophils undergoing apoptosis were examined by Annexin V and propidium iodide (PI) co-staining. A representative flow cytometry of three repeats was shown. *p<0.05.
Neutrophils are recruited during inflammation, in which complex interactions between neutrophils and vascular endothelial cells direct neutrophil adhesion and transmigration from circulation to inflamed tissues (Kolaczkowska and Kubes, 2013). […] Effective neutrophil apoptosis is crucial for the resolution of inflammation. However, in synovitis, neutrophil apoptosis is delayed with a result of extended survival and persistent inflammation (Wright et al., 2014). […] To determine the critical role of neutrophils in AIA, \ neutralizing antibody (1A8) specific for Ly6G was used to deplete neutrophils in vivo. […] Thus, neutrophils accumulation mediated by TH-cell-derived GM-CSF are important for AIA development.

AIA mice = assay: Antigen-induced arthritis (AIA) model; format: in vivo, mouse
From the text: FIGS. 25A-25E depict distinguishable effects of GM-CSF and TNF-α in mouse AIA. […] Data are representative of more than three independent experiments. Representative images of joint sections stained with H&E (FIG. 25C) or Safranin-O/Fast Green (FIG. 25D) at day 7 after arthritis induction as in FIG. 25C. Bars, 500 μm (FIG. 25C upper panels and FIG. 25D) or 100 μm (FIG. 25C lower panels). Arrow in upper panels (FIG. 25C) indicated bone destruction. In FIG. 25E, serum concentrations of GM-CSF, IFN-γ and TNF-α in Stat5^+/+ and Stat5−/− AIA mice were quantified by ELISA. Statistics of n>=8 per group were shown. *p<0.05, **p<0.01, ***p<0.001.
FIGS. 28A-28G depicts STAT5-regulated GM-CSF-producing TH cells are crucial for AIA. Spleens and synovial tissues were collected from Stat5^+/+ and Stat5^−/− mice at day 7 after arthritis induction. (FIG. 28A) Splenic fractions of wild-type AIA mice (n=3) were stimulated under indicated conditions for 18 h. GM-CSF levels in supernatant were quantified by ELISA. (FIGS. 28B-28D) Intracellular staining and flow cytometry of GM-CSF, IL-17 and IFN-γ in splenic CD4^+CD44^hi effector T cells (FIG. 28B) or in synovial infiltrating CD4^+ T cells (FIGS. 28C and 28D) after restimulation for 4 h with PMA/Ionomycin in the presence of Golgiplug. Representative images and statistics of n=5 (FIG. 28B, right panels) or n=3 (FIG. 28D, right panels) per group were shown. Data represent two independent experiments. (FIG. 28E) Protein expression of several proinflammatory cytokines in synovial tissues was measured by ELISA. (FIGS. 28F and 28G) Representative images of joint sections stained with H&E (FIG. 28F) or Safranin-O/Fast Green (FIG. 28G) at day 7 after intraarticular injection of mBSA alone to the right knee joints and mBSA supplemented with GM-CSF to the left knee joints. Bars, 500, 50 or 200 μm as indicated. Data represent two independent experiments.*p<0.05, **p<0.01, p<0.05, **p<0.01, ***p<0.001; ns, not significant. “Splenocytes” represent the left-most bars in each group, “splenocytes depleted of CD4+ T cells” represent the middle bars in each group, and “CD4+ T cells” represent the right-most bars in each group.
FIGS. 31A-31D depicts SAT5-induced GM-CSF expression mediates CD11b^+ cell accumulation in inflamed synovial tissues. (FIG. 31A) The frequencies of CD11b^+ cells in spleens of Stat5^+/+ and Stat5^−/− AIA mice were analyzed by flow cytometry. Statistics of n=3 per group (right panel) were shown. (FIG. 31B) Synovial tissues were harvested from Stat5^+/+ and Stat5^−/− mice at day 7 after arthritis induction, and dissociated into single cell suspensions. The percentage of CD11b^+ myeloid cells among CD45^+ fraction was analyzed by flow cytometry. Statistics of n=5 per group were shown in right panel. […]

[1] = 100 ng intraarticular together with mBSA, day 7

“GM-CSF: granulocyte macrophage colony-stimulating factor (ImmunoTools) given intraarticularly or added to cell cultures” was tested, and the neutrophil apoptosis (neutrophils) was “profound efficacy in delaying neutrophil apoptosis”, the “cartilage depletion in Stat5−/− mice (Safranin-O/Fast Green)” value (AIA mice; [1]) was “severe cartilage depletion” and the “synovial inflammation in Stat5−/− mice” value (AIA mice; [1]) was “efficiently restored synovial inflammation”. The “neutrophil accumulation in synovial compartments of STAT5-deficient mice” value (AIA mice; intraarticular administration during arthritis induction) was “efficiently restored neutrophil accumulation” and the “synovial CD11b+ cell accumulation in STAT5-deficient mice” value (AIA mice; local administration during arthritis induction) was “partially restored”.

Source: patent US10690666B2, “Methods and compositions for modulating TH-GM cell function” (National University of Singapore, priority 2014, dated 2020)
